For 16 molecules, GI50 and TGI results are on record in PubChem BioAssay (NCI).

Test systems include 786-0 renal; A498 renal; A549 NSCLC; ACHN renal; BT-549 breast; CAKI-1 renal; CCRF-CEM leukemia; COLO 205 colon; DU-145 prostate; EKVX NSCLC; HCC-2998 colon; HCT-116 colon; HCT-15 colon; HL-60(TB) leukemia; HOP-62 NSCLC; HOP-92 NSCLC; HS 578T breast; HT29 colon; IGROV1 ovarian; K-562 leukemia; KM12 colon; LOX IMVI melanoma; M14 melanoma; MALME-3M melanoma; MCF7 breast; MDA-MB-231 breast; MDA-MB-435; MDA-MB-468 breast; MOLT-4 leukemia; NCI-H226 lung; NCI-H23 lung; NCI-H460 lung; NCI-H522 lung; OVCAR-3 ovarian; OVCAR-4 ovarian; OVCAR-5 ovarian; OVCAR-8 ovarian; PC-3 prostate; RPMI-8226 leukemia; RXF 393 renal; SF-268 CNS; SF-295 CNS; SF-539 CNS; SK-MEL-2 melanoma; SK-MEL-28 melanoma; SK-MEL-5 melanoma; SK-OV-3 ovarian; SN12C renal; SNB-19 CNS; SR leukemia; SW-620 colon; T-47D breast; TK-10 renal; U251 CNS; UACC-257 melanoma; UACC-62 melanoma; UO-31 renal.

Assay in all cases: growth of human tumour cells (NCI), 48 h

Molecules are shown by their SMILES. Several values for one entry are separate records, joined by “and”; a condition that tells them apart may be missing. Equal entries are not always repeated.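 Cells were grown in 96-well plates and exposed to each compound for 48 hours at five concentrations; endpoints were interpolated linearly between bracketing concentrations, or set to the highest concentration if not reached. GI50 = concentration required for 50% inhibition of growth. TGI is the concentration that stops growth completely.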

Turning to `Cc1ccc(C(=O)CSc2nc3ccc(F)cc3c(=O)n2-c2ccc(Cl)cc2)cc1`, the GI50 in the assay on 786-0 renal was 11.1 µM; in the assay with A498 renal it was above 100 µM; in the assay on A549 NSCLC, above 100 µM; with ACHN renal, 6.83 µM; in the assay on BT-549 breast, 11.2 µM; with CAKI-1 renal it was 4.49 µM. Also, the GI50 was above 100 µM with CCRF-CEM leukemia; above 100 µM with COLO 205 colon; 59.5 µM with DU-145 prostate; above 100 µM in the assay on EKVX NSCLC; above 100 µM in the assay with HCC-2998 colon; above 100 µM in the assay with HCT-116 colon. Further, the GI50 in the assay on HCT-15 colon was above 100 µM; in the assay with HL-60(TB) leukemia, above 100 µM; in the assay with HOP-62 NSCLC, 3.95 µM; in the assay on HOP-92 NSCLC it was 5 µM; with HS 578T breast it was 3.41 µM; with HT29 colon, above 100 µM. The GI50 in the assay with IGROV1 ovarian is 27.1 µM; in the assay on K-562 leukemia, above 100 µM; in the assay on KM12 colon, above 100 µM; with LOX IMVI melanoma it was 4.04 µM; in the assay on M14 melanoma it was above 100 µM; with MALME-3M melanoma it was 66.7 µM. The GI50 in the assay on MCF7 breast was above 100 µM; in the assay on MDA-MB-231 breast, 15.1 µM; in the assay on MDA-MB-435, above 100 µM; in the assay with MDA-MB-468 breast, 82.9 µM; in the assay with MOLT-4 leukemia, above 100 µM; in the assay on NCI-H226 lung, 3.13 µM. The GI50 in the assay with NCI-H23 lung is above 100 µM; in the assay with NCI-H460 lung, 10.3 µM; in the assay with NCI-H522 lung, above 100 µM; in the assay on OVCAR-3 ovarian it was above 100 µM; in the assay with OVCAR-4 ovarian, 9.45 µM; with OVCAR-5 ovarian it was above 100 µM. Besides, the GI50 is 7.89 µM in the assay on OVCAR-8 ovarian; above 100 µM in the assay with PC-3 prostate; above 100 µM in the assay on RPMI-8226 leukemia; 4.89 µM in the assay on RXF 393 renal; 25.3 µM in the assay with SF-268 CNS; 3.51 µM in the assay with SF-295 CNS. Further, the GI50 in the assay with SF-539 CNS was 5.08 µM; in the assay with SK-MEL-2 melanoma, above 100 µM; in the assay on SK-MEL-28 melanoma, above 100 µM; with SK-MEL-5 melanoma, above 100 µM; in the assay with SK-OV-3 ovarian, 39.1 µM; in the assay with SN12C renal, above 100 µM. Further, the GI50 is 4.93 µM with SNB-19 CNS; above 100 µM in the assay on SR leukemia; above 100 µM with SW-620 colon; above 100 µM in the assay with T-47D breast; 98.1 µM in the assay with TK-10 renal; 10.8 µM in the assay on U251 CNS. Further, the results for the GI50 in the assay on UACC-257 melanoma, in the assay on UACC-62 melanoma and in the assay with UO-31 renal were above 100 µM, above 100 µM and 37 µM, respectively. Moreover, the TGI in the assay on 786-0 renal is above 100 µM; in the assay on A498 renal it was above 100 µM; in the assay with A549 NSCLC, above 100 µM; with ACHN renal, above 100 µM; in the assay on BT-549 breast it was above 100 µM; with CAKI-1 renal, 44.5 µM. The TGI in the assay on CCRF-CEM leukemia, in the assay with COLO 205 colon, with DU-145 prostate, in the assay on EKVX NSCLC, in the assay on HCC-2998 colon and with HCT-116 colon was above 100 µM throughout. In addition, the TGI is above 100 µM in the assay on HCT-15 colon; above 100 µM in the assay with HL-60(TB) leukemia; 50.4 µM in the assay on HOP-62 NSCLC; 57.5 µM in the assay with HOP-92 NSCLC; 86.2 µM in the assay on HS 578T breast; above 100 µM with HT29 colon. In addition, the TGI in the assay with IGROV1 ovarian, in the assay on K-562 leukemia, with KM12 colon, in the assay with LOX IMVI melanoma, in the assay with M14 melanoma and in the assay on MALME-3M melanoma was above 100 µM in each case. The TGI in the assay on MCF7 breast is above 100 µM; in the assay with MDA-MB-231 breast it was above 100 µM; in the assay on MDA-MB-435, above 100 µM; in the assay on MDA-MB-468 breast it was above 100 µM; in the assay on MOLT-4 leukemia, above 100 µM; in the assay with NCI-H226 lung, 24.9 µM. Moreover, the TGI in the assay with NCI-H23 lung, with NCI-H460 lung, in the assay with NCI-H522 lung, in the assay with OVCAR-3 ovarian, with OVCAR-4 ovarian and with OVCAR-5 ovarian was above 100 µM each time. The TGI with OVCAR-8 ovarian is above 100 µM; in the assay with PC-3 prostate it was above 100 µM; in the assay on RPMI-8226 leukemia it was above 100 µM; in the assay on RXF 393 renal, 32.6 µM; in the assay on SF-268 CNS, above 100 µM; in the assay on SF-295 CNS, 21.4 µM. The TGI is 47.4 µM in the assay with SF-539 CNS; above 100 µM in the assay on SK-MEL-2 melanoma; above 100 µM in the assay on SK-MEL-28 melanoma; above 100 µM with SK-MEL-5 melanoma; above 100 µM in the assay on SK-OV-3 ovarian; above 100 µM in the assay on SN12C renal. The TGI with SNB-19 CNS was 73.8 µM; in the assay on SR leukemia it was above 100 µM; with SW-620 colon, above 100 µM; in the assay with T-47D breast, above 100 µM; with TK-10 renal it was above 100 µM; in the assay with U251 CNS, above 100 µM. For the same molecule, the TGI with UACC-257 melanoma, with UACC-62 melanoma and with UO-31 renal was above 100 µM in each case.

With `O=C(N/N=C/c1ccccc1O)c1ccccc1Nc1ccnc(C(F)(F)F)c1`, in the assay on MDA-MB-468 breast, the GI50 is 0.272 µM and the TGI was 9.14 µM.

For the molecule `C=CC(=O)N1CC2(CCN(c3nc(OC4CCN(CCCOC)CC4)nc4c(OCC(F)(F)F)c(-c5c(C)ccc6[nH]ncc56)c(C5CC5)cc34)CC2)C1`, in the assay with MDA-MB-468 breast, the GI50 was 1.59 µM and the TGI was determined as 3.29 µM.

In the case of `Oc1ccc2ccccc2c1N=Nc1nccs1`, in the assay on MDA-MB-468 breast, the GI50 is 1.64 µM and the TGI turned out to be 6.16 µM.

On to `CC[C@@H]1C(=O)N(C)c2cnc(Nc3ccc(C(=O)NC4CCN(C)CC4)cc3OC)nc2N1C1CCCC1`, for which, in the assay on MDA-MB-468 breast, the GI50 was 0.00135 µM and < 0.01 µM; the TGI was 0.0164 µM and < 0.0183 µM.

With `CCN(CC)CCOc1ccc(/C(=C(\Cl)c2ccccc2)c2ccccc2)cc1`, in the assay on MDA-MB-468 breast, the GI50 is 1.36 µM and 1.57 µM; the TGI is 5.97 µM and 3.05 µM.

As for `FC(F)(F)c1cccc(Nc2nccc(-c3cnn4nc(-c5ccccc5)ccc34)n2)c1`, in the assay with MDA-MB-468 breast, the GI50 is 7.42 µM and the TGI was above 23.5 µM.

As to `COc1cc2c(c(O)c1Br)C(=O)c1c(O)cc(C[C@H](C)O)cc1[C@H]2[C@H]1c2cc(C[C@H](C)O)cc(O)c2C(=O)c2c1cc(OC)c(Br)c2O`, in the assay with MDA-MB-468 breast, the GI50 is 13.3 µM and 16.5 µM; the TGI was 36 µM and 41.9 µM.

Take `CCOc1cc2c(Cl)ncnc2c(OCC)c1OCC`: in the assay on MDA-MB-468 breast, the GI50 was 0.781 µM and the TGI was found to be 3.56 µM.

With `CCCn1cnc2c(SCc3ccccc3Cl)nc(N)nc21`, in the assay with MDA-MB-468 breast, the GI50 was 13.4 µM and the TGI was 48.4 µM.

`CCN(CC)c1ccc(/C=C/c2ccc3cc(C)ccc3[n+]2CC)cc1`: in the assay with MDA-MB-468 breast, the GI50 is 0.0205 µM and the TGI was found to be 0.464 µM.

Take `CN1CCN(C(=O)OCc2nc3c(N4CCOCC4)nc(Cl)nc3n2C)CC1`: in the assay on MDA-MB-468 breast, the GI50 was 0.923 µM and the TGI is 2.33 µM.

Turning to `Oc1c(CN2CCC(N3CCCCC3)CC2)cc(Cc2cc(CN3CCC(N4CCCCC4)CC3)c(O)c3ncccc23)c2cccnc12`, in the assay on MDA-MB-468 breast, the GI50 is 1.15 µM and the TGI was 2.88 µM.

As to `COc1ccc(-c2cnnc3c(-c4cccc(C(F)(F)F)c4)cnn23)cc1`, in the assay with MDA-MB-468 breast, the GI50 is 5.39 µM and the TGI is above 100 µM.

`C=CCCCCCCCCC(=O)[O][Sn]([CH2]CCC)([CH2]CCC)[CH2]CCC`: in the assay on MDA-MB-468 breast, the GI50 is 0.135 µM and the TGI was 0.278 µM.

`CC(=O)OC[C@]1(C)C=C2C(=O)[C@](C)(O)C3(CC3)C(C)=C2[C@H]1O`: in the assay on MDA-MB-468 breast, the GI50 is 0.0447 µM and the TGI is 0.196 µM.
